Where a name gives a salt, the structure may show the parent alone.
Legend:
[1] = pKa of amitriptyline hydrochloride; type: physicochemical
[2] = Solubility and dissolution rate of amitriptyline hydrochloride in artificial gastric and intestinal fluid; type: physicochemical
Description: Dosage form 10 controls the exit 13 surface area for releasing drug 16 essentially independent of the pH of the drug receiving biological receptor, thereby essentially preventing crystallizing drug 16 in exit 13, or essentially preventing blocking exit 13 with nonreleased drug 16. […] In artificial intestinal fluid at 37° C. the drug dissolution rate in artificial intestinal fluid at pH 7.5 is low compared to the dissolution rate in a lower pH such as gastric fluid having a pH of about 2. […] The dissolution rate is sensitive to pH changes, and when drug 16 is pumped from the dosage form it tends to crystallize at higher pH in orifice exit 13, or to partially block orifice exit 13, which in either instance, slows the drug release rate, and decreases the cumulative amount of drug released from the dosage form. The present invention by providing coated granules of antidepressant tricyclic drug 16, and by providing an orifice in the range of 1 mil to 30 mil (0.0254 mm to 0.760 mm), essentially overcomes the problems discussed above. […] In drawing FIG. 6, the release rate is given on the y-axis and the orifice surface area in mils and in mm^2 is given on the x-axis. The release of drug from the dosage form was measured in artificial intestinal fluid. […] Drawing FIG. 9 depicts the cumulative amount of drug release in mg, over a period of 24 hours for a coated drug through a 10 mil (0.254 mm) exit orifice illustrates about 100% of the drug is delivered free of crystalizing in the orifice. Drawing FIG. 10 depicts the release rate measured in artificial gastric fluid over zero to two hours and then in artificial intestinal fluid over two to twenty-four hours, through a 10 mil (0.254 mm) orifice illustrates about 90% of the drug is delivered under these conditions. […] The antidepressant drug is dose delivered independent of pH as found in the gastrointestinal drug and free from sticking or blocked delivery to a patient.

CN(C)CCC=C1c2ccccc2CCc2ccccc21 [amitriptyline hydrochloride]
pKa [1]: 9.4
solubility (in words) ([2]; 7.5 pH, artificial intestinal fluid, compared to artificial gastric fluid at pH 6): soluble, but the solubility is less
solubility ([2]; artificial gastric fluid, pH 6, simulated gastric fluid): > 600 mg/mL
dissolution rate (in words) ([2]; artificial intestinal fluid at pH 7.5, 37° C., compared to gastric fluid pH about 2): low

Reference: patent US20010055614A1, “Antidepressant therapy” (priority 1998, published 2001)
